Values of other authors, collected in patent publication US4020157A, “Shortened analogs of somatostatin” (Ayerst McKenna and Harrison Ltd., priority 1975, dated 1977).

Conditions: reported by D. Sarantakis et al.

In the case of “[Ala^3,14 ]-somatostatin (AGAKNFFWKTFTSA; Somatostatin-14; UniProt P61278 103-116, looked up, variant C3A C14A) [somatostatin analog synthesized by solid phase methods (Sarantakis et al.)]”, the “activity as % of the potency of somatostatin” value is listed as “about 0.01%”.
